In patent publication US5717095A, “Nucleotide analogs” (Gilead Sciences, Inc., priority 1996, dated 1998):
pEC50, pIC50: −log10 of the molar value. “Also recorded” adds a separate entry of the source. Where two headings read alike, the source gives them in different places.

Assays:
HSV II = assay: Inhibition of cytopathic effects by HSV II in MA 104 cells (XTT); assay type: cell-based, HSV-2; conditions: for pIC50: Human alphaherpesvirus 2, MA104
Procedure: Compounds were individually tested for activity against HSV-1 and/or HSV-2. HSV-2 (strain 414-92) was tested using MA 104 cells in the following assay protocol. 96-Well plates were seeded with 1×10^4 MA 104 cells per well using 200 μL minimal essential medium (MEM) containing 10% calf serum per well, and incubated overnight at 37° C. The compounds were dissolved in MEM Earle's Salts without serum. The medium was removed by aspiration and 100 μL MEM Earle's Salts without serum was added to the wells. Serial 3-fold dilutions of the compounds were prepared by serial transfer of 50 μL of medium from wells containing compound to wells lacking compound. The plates were incubated 15 minutes at 37° C. followed by addition of 100 PFU/well of virus in MEM Earle's Salts with 2% fetal bovine serum. The plates were then incubated at 37° C. for three days until approximately 90% of the cells in virus infected control wells containing no compound were killed. Following incubation, medium was aspirated and the wells were washed with sterile PBS. […] The results, shown in Table 6, were expressed as the IC50, the concentration (μM) that inhibits cell killing mediated by HSV-2 by 50%. […] The toxicity of the compounds were expressed as the CC50, the concentration that kills 50% of uninfected cells.

[1] = system: herpes simplex virus, type 1 or 2 (HSV-1 and -2); conditions: cited from earlier work
[2] = system: varicella zoster virus (VZV); conditions: cited from earlier work
adenovirus = conditions: cited from earlier work
vaccinia virus = conditions: cited from earlier work
[3] = system: thymidine kinase-deficient (TK^-) mutants of herpes simplex virus; conditions: TK^- HSV mutants; cited from earlier work
HCMV [4] = conditions: cited from earlier work
[5] = system: phocid herpesvirus type 1 (seal herpesvirus, SeHV); conditions: cited from earlier work
[6] = system: simian herpesvirus type 1 (SHV-1), or pseudorabies virus or Aujeszky's disease virus; conditions: SHV-1 / pseudorabies virus; cited from earlier work
[7] = system: bovid herpesvirus type 1 (infectious bovine rhinotracheitis virus, BHV-1); conditions: cited from earlier work
[8] = system: equid herpesvirus type 1 (equine abortion virus, EHV-1); conditions: cited from earlier work
[9] = system: African swine fever (ASF) virus; conditions: cited from earlier work
[10] = system: retroviruses such as murine sarcoma virus (MSV); conditions: cited from earlier work
[11] = system: herpes simplex virus type 1; conditions: mice and rabbits, local and systemic HSV-1 infections, including herpetic keratitis caused by acyclovir-type-drug-resistant TK^- mutant; cited from earlier work
HSV-2 (strain 414-92) = assay: Inhibition of HSV-2 mediated cell killing in MA 104 cells (crystal violet); assay type: cell-based; conditions: Human alphaherpesvirus 2, MA104, 72 h, read-out: HSV-2 IC50, concentration that inhibits cell killing mediated by HSV-2 by 50%
Procedure: Compounds were individually tested for activity against HSV-1 and/or HSV-2. HSV-2 (strain 414-92) was tested using MA 104 cells in the following assay protocol. 96-Well plates were seeded with 1×10^4 MA 104 cells per well using 200 μL minimal essential medium (MEM) containing 10% calf serum per well, and incubated overnight at 37° C. The compounds were dissolved in MEM Earle's Salts without serum. The medium was removed by aspiration and 100 μL MEM Earle's Salts without serum was added to the wells. Serial 3-fold dilutions of the compounds were prepared by serial transfer of 50 μL of medium from wells containing compound to wells lacking compound. The plates were incubated 15 minutes at 37° C. followed by addition of 100 PFU/well of virus in MEM Earle's Salts with 2% fetal bovine serum. The plates were then incubated at 37° C. for three days until approximately 90% of the cells in virus infected control wells containing no compound were killed. Following incubation, medium was aspirated and the wells were washed with sterile PBS. 100 μL 0.5% crystal violet in 20% methanol was then added to the wells for 5 minutes, aspirated and the wells were washed two or three times with distilled water. 200 μL of 0.01 N HCl was added to the wells and the absorbance of each well at 595 nm was determined. The results, shown in Table 6, were expressed as the IC50, the concentration (μM) that inhibits cell killing mediated by HSV-2 by 50%. […] The toxicity of the compounds were expressed as the CC50, the concentration that kills 50% of uninfected cells.

[12] = Toxicity to uninfected MA 104 cells; assay type: cell-based; conditions: monkey, read-out: CC50, concentration that kills 50% of uninfected cells
KOS strain of HSV-1 = assay: Activity against KOS strain of HSV-1 in VERO cells; assay type: cell-based; conditions: read-out: HSV-1 EC50, concentration that inhibits cell killing by 50%
Procedure: The compounds were also tested for activity against the KOS strain of HSV-1 in VERO cells. The results, shown in Table 7, were expressed as the EC50, the concentration (μM) that inhibits cell killing mediated by HSV-2 by 50%.

HCMV [13] = assay: Activity against HCMV in tissue culture (NHDF cell line); assay type: cell-based; conditions: Human betaherpesvirus 5
Text: The title compound was synthesized using N^4 -benzoyl HPMPC diethyl ester tritylated at the hydroxyl group as a starting material. The starting material was detritylated using acetic acid and then converted to N^4 -benzoyl HPMPC using TMSBr. The resulting compound was converted to N^4 -benzoyl cHPMPC using DCC and morpholine in pyridine.

[14] = system: human cytomegalovirus (HCMV); conditions: in both humans and animals; cited from earlier work
in vitro = assay type: cell-based; conditions: monkey, ma 104 cells
Procedure: Compounds were individually tested for activity against HSV-1 and/or HSV-2. HSV-2 (strain 414-92) was tested using MA 104 cells in the following assay protocol. 96-Well plates were seeded with 1×10^4 MA 104 cells per well using 200 μL minimal essential medium (MEM) containing 10% calf serum per well, and incubated overnight at 37° C. The compounds were dissolved in MEM Earle's Salts without serum. The medium was removed by aspiration and 100 μL MEM Earle's Salts without serum was added to the wells. Serial 3-fold dilutions of the compounds were prepared by serial transfer of 50 μL of medium from wells containing compound to wells lacking compound. The plates were incubated 15 minutes at 37° C. followed by addition of 100 PFU/well of virus in MEM Earle's Salts with 2% fetal bovine serum. The plates were then incubated at 37° C. for three days until approximately 90% of the cells in virus infected control wells containing no compound were killed. Following incubation, medium was aspirated and the wells were washed with sterile PBS. 100 μL 0.5% crystal violet in 20% methanol was then added to the wells for 5 minutes, aspirated and the wells were washed two or three times with distilled water. 200 μL of 0.01 N HCl was added to the wells and the absorbance of each well at 595 nm was determined. […]

[15] = rhesus monkey, in vivo; cited from earlier work
in vivo = conditions: rhesus monkey, po
[16] = Conversion in rat intestinal homogenate; assay type: in vitro ADME
Text: (§1) The cHPMPC pivaloyloxymethyl ester synthesis yields a racemic mixture at the phosphorus atom. The mixture was separated by HPLC into the two isomers which were then exposed to an rat intestinal homogenate or to a rat intestinal wash.

[17] = Conversion in rat intestinal wash; assay type: in vitro ADME; conditions: both phosphorus isomers
Text: as §1

[18] = MA 104 cells, HSV-2 strain 414-92, three days
[19] = Human alphaherpesvirus 1, KOS strain of HSV-1, VERO cells

## CCOC(=O)c1ccccc1OP(=O)(COCCn1cnc2c(N)ncnc21)Oc1ccccc1C(=O)OCC
HSV II
  activity (inhibition of cytopathic effects): active

## Nc1ncnc2c1ncn2C[C@@H](CO)OCP(=O)(O)O [(S)-HPMPA]
[1]
  antiviral activity: active; also recorded: potent and selective activity
[2]
  antiviral activity: active; also recorded: potent and selective activity
adenovirus
  antiviral activity: active; also recorded: potent and selective activity
Vaccinia virus
  antiviral activity: active; also recorded: potent and selective activity
[3]
  antiviral activity: potent and selective activity
HCMV [4]
  antiviral activity: potent and selective activity
[5]
  antiviral activity: potent and selective activity
[6]
  antiviral activity: potent and selective activity
[7]
  antiviral activity: potent and selective activity
[8]
  antiviral activity: potent and selective activity
[9]
  antiviral activity: potent and selective activity
[10]
  antiviral activity: potent and selective activity
[11]
  in vivo antiviral effect: effective

## Nc1nc(N)c2ncn(C[C@@H](CO)OCP(=O)(O)O)c2n1 [(S)-HPMPDAP]
[1]
  antiviral activity: active

## Nc1nc2c(ncn2C[C@@H](CO)OCP(=O)(O)O)c(=O)[nH]1 [(S)-HPMPG]
[1]
  antiviral activity: active

## Nc1ncnc2c1ncn2C[C@H]1COP(=O)(O)CO1 [(S)-cyclic HPMPA]
[1]
  antiviral activity: active
[2]
  antiviral activity: active
adenovirus
  antiviral activity: active
Vaccinia virus
  antiviral activity: active

## CC(NP(=O)(COCCn1cnc2c(N)ncnc21)NC(C)C(=O)OCc1ccccc1)C(=O)OCc1ccccc1 (centres unmarked) [Ex 1, bis(alanyl benzyl ester)PMEA]
HSV-2 (strain 414-92); [18]
  pIC50: 4.70
[12]
  CC50 at 72 h: > 100 µM

## Nc1ncnc2c1ncn2CCOCP(=O)(NC(Cc1ccccc1)C(=O)OCc1ccccc1)NC(Cc1ccccc1)C(=O)OCc1ccccc1 (centres unmarked) [Ex 2]
HSV-2 (strain 414-92); [18]
  pIC50: 5.40
[12]
  CC50 at 72 h: 20 µM

## Nc1ncnc2c1ncn2CCOCP(=O)(NCC(=O)OCc1ccccc1)NCC(=O)OCc1ccccc1 [Ex 4, bis(glycyl benzyl ester)PMEA]
HSV-2 (strain 414-92); [18]
  pIC50: 4.22
[12]
  CC50 at 72 h: > 100 µM

## CCOC(=O)C(C)NP(=O)(COCCn1cnc2c(N)ncnc21)NC(C)C(=O)OCC (centres unmarked) [Ex 5]
HSV-2 (strain 414-92); [18]
  pIC50: < 4.00
[12]
  CC50 at 72 h: > 100 µM

## CCOC(=O)C(CC(C)C)NP(=O)(COCCn1cnc2c(N)ncnc21)NC(CC(C)C)C(=O)OCC (centres unmarked) [Ex 6]
HSV-2 (strain 414-92); [18]
  pIC50: 4.48
[12]
  CC50 at 72 h: > 100 µM
KOS strain of HSV-1; [19]
  pEC50: 4.70

## CCOC(=O)CNP(=O)(COCCn1cnc2c(N)ncnc21)NCC(=O)OCC [Ex 7]
HSV-2 (strain 414-92); [18]
  pIC50: < 4.00
[12]
  CC50 at 72 h: > 100 µM
KOS strain of HSV-1; [19]
  pEC50: < 3.70

## CC(C)CC(NP(=O)(COCCn1cnc2c(N)ncnc21)NC(CC(C)C)C(=O)OC(C)(C)C)C(=O)OC(C)(C)C (centres unmarked) [Ex 9]
HSV-2 (strain 414-92); [18]
  pIC50: 4.20
[12]
  CC50 at 72 h: > 100 µM
KOS strain of HSV-1; [19]
  pEC50: 4.20

## CC(NP(=O)(COCCn1cnc2c(N)ncnc21)NC(C)C(=O)OC(C)(C)C)C(=O)OC(C)(C)C (centres unmarked) [Ex 10]
HSV-2 (strain 414-92); [18]
  pIC50: < 4.00
[12]
  CC50 at 72 h: > 100 µM
KOS strain of HSV-1; [19]
  pEC50: < 3.70

## CC(C)(C)OC(=O)CNP(=O)(COCCn1cnc2c(N)ncnc21)NCC(=O)OC(C)(C)C [Ex 11]
HSV-2 (strain 414-92); [18]
  pIC50: < 4.00
[12]
  CC50 at 72 h: > 100 µM
KOS strain of HSV-1; [19]
  pEC50: < 3.70

## CCOC(=O)C(Cc1ccccc1)NP(=O)(COCCn1cnc2c(N)ncnc21)NC(Cc1ccccc1)C(=O)OCC (centres unmarked) [Ex 12]
HSV-2 (strain 414-92); [18]
  pIC50: 4.70
[12]
  CC50 at 72 h: 80 µM

## Nc1ccn(C[C@@H](CO)OCP(=O)(O)O)c(=O)n1 [HPMPC]
HCMV [13]
  pIC50: 6.40
[1]
  antiviral activity: active
[14]
  antiviral activity: active

## O=C(Nc1ccn(C[C@H]2COP(=O)(O)CO2)c(=O)n1)c1ccccc1 [N^4 -benzoyl cHPMPC]
HCMV [13]
  pIC50: 4.66

## Nc1ncnc2c1ncn2CCOCP(=O)(O)O [PMEA, reference compound]
HSV-2 (strain 414-92)
  pIC50: 4.68
KOS strain of HSV-1; Human alphaherpesvirus 1, Vero
  pEC50: 3.86
HSV II
  pIC50: 4.71
In vitro
  CC50: 2000 µM
[15]
  Oral bioavailability: 2-4%

## CCOc1ccccc1OP(=O)(COCCn1cnc2c(N)ncnc21)Oc1ccccc1OCC [bis(2-ethoxyphenyl)PMEA, Bis(2-ethoxyphenyl)PMEA]
HSV II
  activity (inhibition of cytopathic effects): active

## CN(C)c1cccc(OP(=O)(COCCn2cnc3c(N)ncnc32)Oc2cccc(N(C)C)c2)c1 [bis(3-dimethylaminophenyl)PMEA]
HSV II
  activity (inhibition of cytopathic effects): active

## COc1cccc(OP(=O)(COCCn2cnc3c(N)ncnc32)Oc2cccc(OC)c2)c1 [bis(3-methoxyphenyl)PMEA]
HSV II
  activity (inhibition of cytopathic effects): active

## Nc1ncnc2c1ncn2CCOCP(=O)(Oc1ccc(F)cc1)Oc1ccc(F)cc1 [bis(4-fluorophenyl)PMEA]
HSV II
  activity (inhibition of cytopathic effects): active

## CC(C)(C)C(=O)OCOP(=O)(COCCn1cnc2c(N)ncnc21)OCOC(=O)C(C)(C)C [bis(POM)PMEA, reference compound]
HSV II
  activity (inhibition of cytopathic effects): active
  pIC50: 6.30
In vitro
  CC50: > 10 µM
In vivo
  bioavailability: ~25%

## Nc1ncnc2c1ncn2CCOCP(=O)(OCOC(=O)C12CC3CC(CC(C3)C1)C2)OCOC(=O)C12CC3CC(CC(C3)C1)C2 [bis(adamantoyl oxymethyl)PMEA, bis(adamantoyl oxymethyl)PMEA ester]
HSV II
  activity (inhibition of cytopathic effects): active

## Nc1ncnc2c1ncn2CCOCP(=O)(Oc1ccccc1)Oc1ccccc1 [bis(phenyl)PMEA, Bis(phenyl)PMEA]
HSV II
  activity (inhibition of cytopathic effects): active

## CC(C)(C)C(=O)OCOP1(=O)CO[C@@H](Cn2ccc(N)nc2=O)CO1 (some centres unmarked) [cHPMPC pivaloyloxymethyl ester]
[16]; one of the two phosphorus isomers
  metabolic conversion in homogenate: converted to cHPMPC
[16]; the other phosphorus isomer
  metabolic conversion in homogenate: converted to HPMPC pivaloyloxymethyl monoester
[17]
  conversion in intestinal wash: converted to HPMPC pivaloyloxymethyl monoester

## Nc1ncnc2c1ncn2CCOCP(=O)(O)Oc1ccccc1 [monophenylPMEA, monophenyl ester of PMEA]
HSV II
  activity (inhibition of cytopathic effects): active
